Experimental data: patent US9023987B2, “Cell-permeable peptide” (Seoul National University R&DB Foundation, priority 2010, dated 2015)

Legend:
ALP, OCN, and RUNX2 = assay: Bone differentiation marker genes by quantitative real-time PCR and electrophoresis; type: cell-based, human; settings: EtBr agarose gel, compared with PBS; FIG. 4C
Description: In order to confirm cell differentiation ability of the cell permeable peptide-bone differentiation inducing sequence conjugate through bone tissue differentiation marker genes, human mesenchymal stem cells (hMSC) were seeded in each well of a 6 cm-dish at 1×10^5/well, and then incubated in a general medium for 20 hours (overnight) for cell stabilization. After 20 hours of incubation, the cells were treated with the cell permeable peptide-bone differentiation inducing sequence conjugate and 10 μm of the bone differentiation inducing sequence of Comparative Example 2 for 72 hours.
After that, the entire RNA was separated from the treated cells, using a Trizol® reagent (reagent for isolating RNA from cell and tissue samples) (Invitrogen Life Technologies, USA), according to the manufacturer's instructions, and the amount and purity of the entire RNA were measured by the spectrophotometer. […]
In order to carry out the quantitative real-time PCR, cDNA to be used as a template and primers were mixed, like in RT-PCR, and then 10 μl of SYBR® Green Premix Ex Taq (TaKaRa, JAPAN) was mixed therewith to prepare a reaction material. […] The CT value of each gene was […] the CT value for housekeeping GAPDH gene and the value calculated based on the negative control was taken, so that comparison in the degree of mRNA expression was conducted (Shin et al., (2007) Plant J. 49, 981-994).

[1] = system: human mesenchymal stem cells (hMSC); assay: Cell permeability by flow cytometry; type: cell-based; design: dose or concentration left out as unconfirmed; settings: FITC-labeled, relative to bone differentiation inducing sequence, FIG. 3B
Description: The domains synthesized in Example 1 and Comparative Examples 1 and 2 were labeled with a fluorescent material in order to measure cell permeability. 10 equivalents of fluorescein isothiocyanate (FITC) was bound to N-terminals of the synthesized domains by using triethylamine (1 ml per 1 g of resin). The synthesis of the peptide was confirmed by measuring the molecular weight thereof through MALDI-TOF.
In order to quantitatively confirm the cell permeability and cell permeation degree of fluorescence labeled magnetic nanoparticle conjugates, after 1×10^5 human mesenchymal stem cells (hMSC) were plated in each well of 6-well plate, the cells were cultured in a general medium for 20 hours (overnight incubation). […] fluorescence labeled cell permeable peptide-bone differentiation inducing sequence conjugate and […] fluorescence labeled bone differentiation inducing sequence that were obtained by binding FITC (SIGMA, USA) N-terminals of the cell permeable peptide-bone differentiation inducing sequence conjugate synthesized by the method in Example 1 and the domain in Comparative Example 2 to synthesize the fluorescence label conjugate and fluorescence label domain, followed by isolation and purification, were injected into each well and washed with the phosphate buffer solution (PBS) two times after 20, 40, 60, and 80 minutes of injection. […]

NH2-GAPPPADSAP-SSRKKNPNCRRH-C-COONH2 (H-GAPPPADSAPSSRKKNPNCRRHC-NH2; cysteine pairing not given here) [Example 1]
bands of ALP, OCN, and RUNX2 PCR products (electrophoresis) (ALP, OCN, and RUNX2): noticeably increased bands | relative increase of fluorescence intensity (flow cytometry) [1]: ≥ 10 times
